Assay results from US20240239782A1, “SULFATE CRYSTALS OF MELANOCORTIN RECEPTOR AGONIST COMPOUND AND METHOD OF PRODUCING SAME” (LG CHEM, LTD., priority 2021, published 2024).

Description: Solubility indicates the result of measurement based on the final volume of water added to a sample when it is visually confirmed that the sample is completely dissolved by adding water to the sample. The solubility of the actual sample may be higher than the measured solubility. Solubility was measured based on the final volume of water added to a sample when it was visually confirmed that the sample was completely dissolved by adding water to the sample.

Q: Which solubility does the source give for `CC(C)C(=O)N([C@H]1C[C@@H](C(=O)N2CCOCC2)N(C(=O)[C@@H]2CN(C(C)(C)C)C[C@H]2c2ccc(Cl)cc2)C1)[C@H]1CC[C@@H](C)CC1.O=S(=O)(O)O` [Example 2, N-((3S,5S)-1-((3S,4R)-1-(tert-butyl)-4-(4-chlorophenyl)pyrrolidine-3-carbonyl)-5-(morpholine-4-carbonyl)pyrrolidin-3-yl)-N-((1 s,4R)-4-methylcyclohexyl)isobutyramide sulfate] here?
A: The solubility was “more than 56 mg/mL”.
